Assays:
STAT3 [1] = target: T1, STAT3 (Homo sapiens, UniProt P40763); settings: read-out: IC50 as STAT3 inhibitor; cited from earlier work
Target sequence in this assay (P40763 whole entry, species assumed): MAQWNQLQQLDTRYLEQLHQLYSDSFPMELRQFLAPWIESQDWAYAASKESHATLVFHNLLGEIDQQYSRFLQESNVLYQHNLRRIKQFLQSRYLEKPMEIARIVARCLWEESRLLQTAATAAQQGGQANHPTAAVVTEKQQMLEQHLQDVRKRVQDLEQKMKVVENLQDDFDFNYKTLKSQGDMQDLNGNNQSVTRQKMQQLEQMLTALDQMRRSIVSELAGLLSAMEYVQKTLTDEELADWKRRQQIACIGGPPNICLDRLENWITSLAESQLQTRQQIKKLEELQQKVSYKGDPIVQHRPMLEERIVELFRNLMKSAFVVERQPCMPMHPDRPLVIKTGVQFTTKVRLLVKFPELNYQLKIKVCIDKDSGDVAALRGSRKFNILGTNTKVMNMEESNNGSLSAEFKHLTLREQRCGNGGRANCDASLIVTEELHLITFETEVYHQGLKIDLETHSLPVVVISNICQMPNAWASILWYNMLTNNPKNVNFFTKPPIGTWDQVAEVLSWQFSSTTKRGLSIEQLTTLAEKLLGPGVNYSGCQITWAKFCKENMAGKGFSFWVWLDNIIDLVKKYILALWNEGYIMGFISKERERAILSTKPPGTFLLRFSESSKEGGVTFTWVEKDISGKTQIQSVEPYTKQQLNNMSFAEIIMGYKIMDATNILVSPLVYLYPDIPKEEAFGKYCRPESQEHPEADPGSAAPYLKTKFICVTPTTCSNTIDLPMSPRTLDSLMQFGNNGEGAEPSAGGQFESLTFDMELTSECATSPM

purified STAT1 protein = target: T2, purified STAT1 protein (Homo sapiens, UniProt P42224); experiment: Protein thermal shift (PTS) assay of STAT1; assay type: binding; settings: 10 and 20 μM
T2 sequence (P42224 1-750): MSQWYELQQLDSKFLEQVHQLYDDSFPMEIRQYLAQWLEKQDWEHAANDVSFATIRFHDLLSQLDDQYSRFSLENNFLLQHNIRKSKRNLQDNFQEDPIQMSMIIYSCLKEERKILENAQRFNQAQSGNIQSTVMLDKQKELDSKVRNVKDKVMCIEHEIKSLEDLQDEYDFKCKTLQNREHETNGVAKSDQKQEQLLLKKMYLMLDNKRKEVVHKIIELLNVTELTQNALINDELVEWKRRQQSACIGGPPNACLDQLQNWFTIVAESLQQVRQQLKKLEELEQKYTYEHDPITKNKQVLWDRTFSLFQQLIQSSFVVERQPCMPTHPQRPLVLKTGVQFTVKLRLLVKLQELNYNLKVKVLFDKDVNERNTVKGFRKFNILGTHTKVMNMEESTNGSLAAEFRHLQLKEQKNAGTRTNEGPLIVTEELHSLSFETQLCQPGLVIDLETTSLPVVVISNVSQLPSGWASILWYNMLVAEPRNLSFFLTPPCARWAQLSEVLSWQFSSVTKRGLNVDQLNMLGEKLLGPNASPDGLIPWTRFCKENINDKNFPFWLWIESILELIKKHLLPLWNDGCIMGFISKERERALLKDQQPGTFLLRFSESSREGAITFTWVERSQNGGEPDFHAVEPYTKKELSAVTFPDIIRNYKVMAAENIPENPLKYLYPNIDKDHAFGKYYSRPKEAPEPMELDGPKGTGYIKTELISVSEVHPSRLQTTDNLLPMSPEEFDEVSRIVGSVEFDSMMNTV
Description: (§1) FIG. 5 illustrates an embodiment of the present invention and illustrates evaluations of SIM-1 and SIM-2 as STAT3 inhibitors. (A) Protein thermal shift assay was performed to assess the melting of purified recombinant STAT3 (blue; 0.5 μg protein) (Tm=melting temperature=68.88° C.). The representative melting curves were derived after adding SIM-1 (red; 4 nM), SIM-2 (purple; 8 nM), and positive control stattic (grey; 20 nM) to the STAT3 protein. The differences of melting temperature (ΔTm) between pure protein and protein+ligands are −4.54° C., −4.16° C., and 0.39° C. for SIM-1, SIM-2, and stattic (ΔTm^cut-off>2° C.). (B) Phospho protein array analysis was conducted in cell lysates of MDA-MB-468 cells treated with DMSO control (top left), 25 ng/mL EGF (top right), EGF+10 nM SIM-1 (bottom left), and EGF+SIM-2 (bottom right) for 24 hrs. Each colored arrowhead represents a specific phosphoprotein, and the description was added in the bottom of array images. S=serine and Y=tyrosine. Relative levels of (C) Tyrosine 705 (Y705) phosphorylated STAT3, (D) Serine 727 (S727) phosphorylated STAT3, (E) Tyrosine 693 (Y693) phosphorylated STAT4, (F) Tyrosine 694 ([…]) phosphorylated STAT5A had been derived after normalizing the spot densities (n=5) with respective β-actin spots. Results are mean±SD of five different spot analyses. One-way ANOVA was adopted to test the significance of mean between groups at **p<0.01, and ****p<0.0001. Ns=no significance. Thermal shift assays of increasing doses of (G) SIM-1, (H) SIM-2, and (I) stattic with purified STAT1 protein (0.5 μg protein). The respective ΔTm values were given with the plot after matching with the color code. Similarly, full-length STAT5b protein melting was assessed with (J) SIM-1, (K) SIM-2, and (L) stattic. Results are confirmed after three different experiments.
(§2) To confirm the result, PTS assay of STAT1 with SIM-1 (FIG. 5G), SIM-2 (FIG. 5H), and stattic (FIG. 5I) was performed. […] Similar results were observed while performing the binding assay with STAT5b.

TNBC cells = settings: cited from earlier work
[2] = target: T3, full-length STAT5b protein (Homo sapiens, UniProt P51692); experiment: Protein thermal shift binding assay with STAT5b; settings: increasing doses
T3 construct: full-length STAT5b protein melting was assessed with (J) SIM-1, (K) SIM-2, and (L) stattic
T3 sequence (P51692 1-787): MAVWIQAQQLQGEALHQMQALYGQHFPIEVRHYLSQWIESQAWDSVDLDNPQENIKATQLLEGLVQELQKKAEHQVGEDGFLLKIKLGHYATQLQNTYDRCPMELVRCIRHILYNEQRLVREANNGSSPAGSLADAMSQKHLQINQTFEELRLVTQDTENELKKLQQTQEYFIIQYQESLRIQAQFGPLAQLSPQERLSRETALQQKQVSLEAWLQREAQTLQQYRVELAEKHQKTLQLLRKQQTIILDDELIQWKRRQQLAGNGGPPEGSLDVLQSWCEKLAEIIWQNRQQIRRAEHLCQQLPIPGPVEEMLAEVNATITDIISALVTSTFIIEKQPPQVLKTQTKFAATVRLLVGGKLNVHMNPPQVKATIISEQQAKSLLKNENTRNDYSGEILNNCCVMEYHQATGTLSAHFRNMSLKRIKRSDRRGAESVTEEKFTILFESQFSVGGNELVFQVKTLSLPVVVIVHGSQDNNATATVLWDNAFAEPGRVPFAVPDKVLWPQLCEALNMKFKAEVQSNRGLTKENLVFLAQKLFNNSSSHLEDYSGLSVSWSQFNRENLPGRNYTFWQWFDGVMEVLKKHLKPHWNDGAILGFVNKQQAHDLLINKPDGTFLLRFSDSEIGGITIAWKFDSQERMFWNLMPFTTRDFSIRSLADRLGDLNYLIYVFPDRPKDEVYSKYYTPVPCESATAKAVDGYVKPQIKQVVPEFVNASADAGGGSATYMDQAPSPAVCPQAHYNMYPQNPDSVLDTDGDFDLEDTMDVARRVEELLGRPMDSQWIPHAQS
Description: as §1, §2

STAT3 [3] = target: T1, STAT3; experiment: Protein thermal shift assay with recombinant STAT3; assay type: binding; set-up: purchased Active motif 81095
Description: as §1
Target sequence in this assay (P40763 whole entry): as the sequence (P40763 whole entry, species assumed) above
FIG. 6 illustrates an embodiment of the present invention and illustrates dose-dependent curves of maximum fluorescence for SIM1 and SIM2. Protein thermal shift assay of recombinant STAT3 was performed with increasing doses of (A) SIM-1, (B) SIM-2, and (C) positive control “Stattic”. The maximum fluorescence for each dose was derived and then plotted in GraphPad Prism software with respective doses. The resultant non-liner hyperbolic curves provide half-maximal binding (EC50) for all three compounds.
This example provides a representative study of the present disclosure to test if SIM1 and SIM2 served as ligands of STAT3. Therefore, the present invention adopted a protein thermal shift assay in which […] of recombinant human STAT3 protein (active motif) was incubated with increasing doses of SIM1 and SIM2 followed by the execution of melting analysis starting from 25 to 95° C. as described elsewhere.

tumor burden = settings: in vivo; cited from earlier work

O=[N+]([O-])c1ccc2c(c1)S(=O)(=O)C=C2 [stattic, reference compound]
IC50 (STAT3 [1]): 5 µM | shift in the melting curve of STAT1 (purified STAT1 protein): did not produce any shift | CT50 (TNBC cells): micromolar range | doses causing apoptosis of TNBC tumors (TNBC cells): 10 to 20 µM | shift in the melting curve of STAT5b [2]: unable to produce any significant shift | ΔTm of STAT3 (STAT3 [3]; 20 nM ligand, cut-off 2° C.): 0.39 °C | EC50 (STAT3 [3]; non-linear hyperbolic binding curve, read-out: EC50 (half-maximal binding, maximum fluorescence versus dose)): ~2 µM

NC(=O)CC[C@H](NC(=O)[C@@H]1CC[C@@H]2CCN(C(=O)CCCCCC#Cc3cccc4c3CN(C3CCC(=O)NC3=O)C4=O)C[C@H](NC(=O)c3cc4cc(C(F)(F)P(=O)(O)O)ccc4[nH]3)C(=O)N21)C(=O)NC(c1ccccc1)c1ccccc1 (stereo partly drawn) [SD36]
CT50 (TNBC cells): micromolar range | dose effectively reducing tumor burden (tumor burden): 25-50 mg/Kg body weight (bwt)
